Experiments:
[1] = test system: A549; assay: Inhibition of glycolysis in human A549 cells assessed as decrease in HK2 activity incubated for 48 hrs by spectrophotometric assay; format: functional, cell-based; conditions: A549, 48 h
[2] = test system: 3T3-L1; assay: Induction of glucose uptake in mouse 3T3-L1 cells assessed as increase in glucose uptake; format: functional, cell-based
[3] = target: T1, Solute carrier family 2, facilitated glucose transporter member 1 (Homo sapiens, UniProt P11166); assay: Inhibition of GLUT1 in human wild-type DLD-1 cells assessed as reduction in ATP level measured after 90 mins by Celltiter-glo luminescent assay; format: cell-based
T1 sequence (P11166 whole entry): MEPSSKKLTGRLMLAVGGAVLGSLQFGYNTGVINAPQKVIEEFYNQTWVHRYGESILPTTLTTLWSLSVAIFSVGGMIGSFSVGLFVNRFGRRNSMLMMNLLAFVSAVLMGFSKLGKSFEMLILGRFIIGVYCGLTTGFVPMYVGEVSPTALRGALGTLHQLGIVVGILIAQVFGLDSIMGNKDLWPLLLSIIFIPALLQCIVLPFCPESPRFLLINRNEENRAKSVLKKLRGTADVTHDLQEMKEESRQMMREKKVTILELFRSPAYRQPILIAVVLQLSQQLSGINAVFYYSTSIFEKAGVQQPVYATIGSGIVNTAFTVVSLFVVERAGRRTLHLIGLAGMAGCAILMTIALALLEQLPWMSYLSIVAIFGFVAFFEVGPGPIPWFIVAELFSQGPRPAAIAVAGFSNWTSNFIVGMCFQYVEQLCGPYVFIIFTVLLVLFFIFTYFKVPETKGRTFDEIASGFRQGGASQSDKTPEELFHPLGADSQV

[4] = target: T2, Solute carrier family 2, facilitated glucose transporter member 9 (Homo sapiens, UniProt Q9NRM0); assay: Inhibition of GLUT9 (unknown origin) overexpressed in uric acid-induced HEK293 cells by patch clamp analysis; format: cell-based
T2 sequence (Q9NRM0 whole entry): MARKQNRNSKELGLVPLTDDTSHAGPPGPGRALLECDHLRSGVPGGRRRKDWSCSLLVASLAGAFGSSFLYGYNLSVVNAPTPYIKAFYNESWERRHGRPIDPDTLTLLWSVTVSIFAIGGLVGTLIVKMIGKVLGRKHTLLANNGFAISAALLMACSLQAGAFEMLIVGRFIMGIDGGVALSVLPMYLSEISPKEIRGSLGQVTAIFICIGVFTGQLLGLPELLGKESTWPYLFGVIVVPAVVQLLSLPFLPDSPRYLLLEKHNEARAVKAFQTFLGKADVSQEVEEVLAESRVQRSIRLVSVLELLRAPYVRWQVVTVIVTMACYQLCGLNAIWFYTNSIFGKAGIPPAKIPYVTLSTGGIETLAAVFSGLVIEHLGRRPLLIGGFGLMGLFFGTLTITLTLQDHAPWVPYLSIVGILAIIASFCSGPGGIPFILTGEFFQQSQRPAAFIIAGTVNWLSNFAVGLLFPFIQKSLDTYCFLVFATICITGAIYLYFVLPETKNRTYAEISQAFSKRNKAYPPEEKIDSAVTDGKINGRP

[5] = Induction of GLUT1 translocation in mouse 3T3-L1 cells by Western blot analysis; format: cell-based
[6] = Induction of GLUT4 translocation in mouse 3T3-L1 cells Cytosol by Western blot analysis; format: subcellular

CC(C)NC(=O)COc1cccc(-c2nc3c(c(Nc4ccc(-c5cn[nH]c5)cc4)n2)COC3)c1
IC50 [1]: < 0.1 µM

CC(C)NC(=O)COc1cccc(-c2nc(Nc3ccc(-c4cn[nH]c4)cc3)c3sccc3n2)c1
IC50 [1]: < 0.1 µM

O=C(Oc1cccc(OC(=O)c2cccc(O)c2)c1OC(=O)c1cccc(O)c1)c1cccc(O)c1
IC50 [2]: 0.3 µM

O=C1CC(c2ccc(-c3cc[nH]n3)s2)c2cc(N3CCNC3=O)ccc2N1 (stereo not drawn)
IC50 [2]: 33 µM

CC(CN1C(=O)S/C(=C\c2ccc(O)c(C(F)(F)F)c2)C1=O)(CC(F)(F)F)CC(F)(F)F
IC50 [3]: 11.4 µM

FC(F)(F)c1cc(NC(=S)NCc2ccccc2)ccc1Cl
IC50 [2]: 61 µM

O=C(COc1cccc(-c2nc3c(c(Nc4ccc(-c5cn[nH]c5)cc4)n2)COC3)c1)NC1CCCC1
IC50 [1]: < 0.1 µM

COc1ccccc1N1CCN(C(=O)c2cnn(-c3nccc(-c4cccs4)n3)c2C2CC2)CC1
IC50 [3]: 2.87 µM

O=C1CC(c2cccc3[nH]ccc23)c2ccc(NC(=O)c3cccnc3)cc2N1 (stereo not drawn)
IC50 [2]: 28 µM

O=C(COc1cccc(-c2nc(Nc3ccc(-c4cn[nH]c4)cc3)c3sccc3n2)c1)NC1CCCC1
IC50 [1]: < 0.1 µM

OC[C@H]1OC(O)[C@H](O)[C@@H](O)[C@@H]1O (stereo partly drawn) [DEXTROSE]
IC50 [2]: 1.4 µM

C/C(=N\O)c1ccc(-c2ccc(O)c(C)c2)c(Cl)c1O
IC50 [3]: 7 µM

O=c1cc(-c2ccc(O)cc2)oc2cc(O)cc(O)c12 [APIGENIN]
IC50 [4]: 2.63 µM

COc1cc(/C=C/C(=O)CC(=O)/C=C/c2ccc(O)c(OC)c2)ccc1O [CURCUMIN]
IC50 [4]: 19 µM

O=C(COc1ccc(-c2csc3ccccc23)cc1CN1CCN(c2ccccn2)CC1)NCc1nccs1
IC50 [3]: 6.32 µM

CN(Cc1cccc2ncccc12)C(=O)c1cnn(-c2ncc3c(n2)-c2ccccc2CC3)c1C1CC1
IC50 [3]: 7.07 µM

CCC(C)[C@H]1C(=O)NCC(=O)N(C)CC/C=C/C(=O)OCC(C)(C)C(=O)C(=O)N2CCCC[C@H]2C(=O)O[C@H](CCc2ccc(OC)c(OC)c2)c2cccc(c2)NC(=O)CCC(=O)N(C)[C@@H](CC(C)C)C(=O)N[C@H](Cc2ccccc2)C(=O)N1C (stereo partly drawn)
IC50 [5]: 78 nM

COc1ccc(-n2cc(-c3ccc(Cl)cc3)nc2NC(=O)CN(Cc2ccccc2)C(=O)c2ccc(C)cc2)cc1OC
IC50 [3]: 1.89 µM

C/C(=N\O)c1ccc(-c2ccc(O)c(Cl)c2)c(Cl)c1O
IC50 [3]: 0.29 µM

Cc1cccc(NC(=O)CN2C(=O)N/C(=C/c3cc(C)n(-c4ccc(O)cc4)c3C)C2=O)c1
IC50 [3]: 10.6 µM

COc1ccc(CN(CC[C@@H](c2ccccc2)[C@H]2CCOC(C)(C)C2)C(=O)c2ccco2)cc1OC
IC50 [2]: 0.11 µM

O=C(COc1cccc(-c2nc3c(c(Nc4ccc(-c5cn[nH]c5)cc4)n2)COC3)c1)NC1CCC1
IC50 [1]: < 0.1 µM

COc1ccc(C2=CC(c3ccc(F)cc3)N(C(=O)CSc3c(C)[nH]c4ccccc34)N2)cc1 (stereo not drawn)
IC50 [3]: 0.61 µM

Cc1ccc(CNc2ccc(Cl)cc2NCc2ccc(C)c(O)c2)cc1O
IC50 [5]: 2600 nM

O=C(CN1C(=O)S/C(=C/c2ccc(F)cc2)C1=O)Nc1cccc(C(F)(F)F)c1
IC50 [5]: 26600 nM

COCc1c(C(=O)N2CCN(c3ccccc3)CC2)cnn1-c1ncc2c(n1)-c1ccccc1CCC2
IC50 [3]: 6.08 µM

CCOC(=O)Cn1c2c(c3ccccc31)C[C@@H]1C[C@@H]2[C@H](OC)CN1C(=O)c1cccnc1SC
IC50 [3]: 0.0596 µM | IC50 [4]: 11.4 µM

O=C(Oc1ccc2ccc(=O)oc2c1OC(=O)c1ccc(O)cc1)c1ccc(O)cc1
IC50 [3]: 38 µM

O=C(Oc1cccc(OC(=O)c2cc(O)c(O)c(O)c2)c1OC(=O)c1cc(O)c(O)c(O)c1)c1cc(O)c(O)c(O)c1
IC50 [2]: 5 µM

O=C(CCc1ccc(O)cc1)c1c(O)cc(O)cc1O [PHLORETIN]
IC50 [4]: 49 µM

OC[C@H]1O[C@](O)(CO)[C@@H](O)[C@@H]1O
IC50 [2]: 3.9 µM

O=C(CN1C(=O)S/C(=C/c2ccc(Cl)cc2)C1=O)Nc1ccc(Cl)cc1C(F)(F)F
IC50 [5]: 5400 nM

CC(=O)CC(=O)Nc1ccc(Cl)c(C(F)(F)F)c1
IC50 [2]: 68 µM

C[C@H](NC(=O)[C@H](Cc1ccc(F)cc1)NC(=O)Cc1cccc(O)c1)c1ccccc1
IC50 [5]: 0.2 nM

O=C(CN1C(=O)S/C(=C/c2ccco2)C1=O)Nc1ccc(Cl)c(Cl)c1
IC50 [5]: 14700 nM

Cc1nn(C(=O)c2ccncc2)c(C)c1/N=N/c1ccc(Cl)cc1
IC50 [3]: 11.1 µM

CC(=O)Nc1ccc(S(=O)(=O)Nc2ccc(Nc3cc(N(C)C)nc(C)n3)cc2)cc1
IC50 [6]: 7.01 µM

CCCCC1C(=O)NC2Cc3cccc4ccc(cc34)N1C(=O)COc1cccc(c1)[C@@H](CCc1ccc(OC)c(OC)c1)OC(=O)C1CCCCN1C(=O)C(=O)C(C)(C)COC(=O)/C=C\CCN(C)C(=O)CNC(=O)C(COC(C)(C)C)N(C)C2=O (stereo partly drawn)
IC50 [1]: < 0.1 µM

CCOc1cccc2c1O[C@]1(C)C[C@@H]2NC(=O)N1c1cccc(C(=O)NCCc2ccc(C)cc2)c1
IC50 [3]: 0.162 µM | IC50 [4]: 0.32 µM

COc1ccc(-c2ccc(O)c(/C=N/O)c2)cc1F
IC50 [3]: 10.8 µM

Cc1ccccc1CN(Cc1nnc(C(C)(C)C)o1)c1ccc2nc(O)[nH]c2c1
IC50 [6]: 6.94 µM

C[C@@]1(C(=O)NCc2cccnc2)Cn2nc(-c3ccccc3)cc2C(=O)N1Cc1ccc(N2CCOCC2)cc1
IC50 [5]: 6.2 nM

COc1ccc(-c2ccc(/C(C)=N/O)c(O)c2Cl)cc1
IC50 [3]: 1.67 µM

COc1ccccc1N1CCN(c2ncnc3c2cnn3-c2cc(F)cc(F)c2)CC1
IC50 [5]: 0.09 nM

CS(=O)(=O)c1ccc(Nc2ccc3c(c2)OCO3)c([N+](=O)[O-])c1
IC50 [6]: 5.8 µM

CCOc1ccc2nc(-c3cccc(OCC(=O)NC(C)C)c3)nc(Nc3ccc(-c4cn[nH]c4)cc3)c2c1
IC50 [5]: 115 nM

CC(C)(C)c1ccc(S(=O)(=O)NCc2ccc(C(=O)Nc3cccnc3)cc2)cc1
IC50 [3]: 1 µM

CC/C=C\C/C=C\C/C=C\C/C=C\C/C=C\C/C=C\CCC(=O)O [DOCONEXENT]
IC50 [2]: 0.8 µM

O=C(Nc1ccc(Cl)c(C(F)(F)F)c1)c1ccc(Cl)cc1
IC50 [2]: 61 µM

O=C(CN1C(=O)S/C(=C/c2ccccc2)C1=O)Nc1nc2c(Cl)cccc2s1
IC50 [5]: 12600 nM

N[C@H]1C(O)O[C@H](CO)[C@@H](O)[C@@H]1O (stereo partly drawn) [GLUCOSAMINE]
IC50 [2]: 0.9 µM

O=C(Oc1cccc(F)c1OC(=O)c1cccc(O)c1)c1cccc(O)c1
IC50 [2]: 0.5 µM

COc1ccc(CC(=O)N[C@@H](Cc2cccc(Br)c2)C(=O)N[C@@H](C)c2ccccc2)cc1
IC50 [5]: 0.14 nM

Cc1cc(NC(=O)CCC2Cc3ccccc3NC2=O)nc(-c2ccccc2)n1 (stereo not drawn)
IC50 [6]: 3.88 µM

C=C1[C@@H](C)[C@H]2[C@H](Cc3ccccc3)NC(=O)[C@]23OC(=O)/C=C/[C@H](O)CCC[C@@H](C)C/C=C/[C@H]3[C@@H]1O [CYTOCHALASIN B]
IC50 [4]: 0.44 µM

O=C(CN1C(=O)S/C(=C/c2ccco2)C1=O)Nc1nc2ccccc2s1
IC50 [5]: 11400 nM

Source: ChEMBL document CHEMBL6096679, “Recent Progress in the Development of Glucose Transporter (GLUT) Inhibitors” (J Med Chem, 2025)
